Results published in US20260028365A1 (BIOGEN MA INC., priority 2022, published 2026).
Where two headings read alike, the source gives them in different places.

Key:
Tyk2 = Tyk2 (Homo sapiens (Human), UniProt P29597); assay: pSTAT4 Cell Assay (MSD, NK92 cells); assay type: cell-based
JH2 domain of human Tyk2 = JH2 domain of human Tyk2 (Homo sapiens (Human), UniProt P29597); assay: JH2 Biochemical Assay (TR-FRET probe displacement); assay type: binding
JAK2 = JAK2 (Homo sapiens (Human), UniProt O60674); assay: pSTAT5 Cell Assay (MSD, TF1 cells); assay type: cell-based
JAK2, sequence (O60674 whole entry): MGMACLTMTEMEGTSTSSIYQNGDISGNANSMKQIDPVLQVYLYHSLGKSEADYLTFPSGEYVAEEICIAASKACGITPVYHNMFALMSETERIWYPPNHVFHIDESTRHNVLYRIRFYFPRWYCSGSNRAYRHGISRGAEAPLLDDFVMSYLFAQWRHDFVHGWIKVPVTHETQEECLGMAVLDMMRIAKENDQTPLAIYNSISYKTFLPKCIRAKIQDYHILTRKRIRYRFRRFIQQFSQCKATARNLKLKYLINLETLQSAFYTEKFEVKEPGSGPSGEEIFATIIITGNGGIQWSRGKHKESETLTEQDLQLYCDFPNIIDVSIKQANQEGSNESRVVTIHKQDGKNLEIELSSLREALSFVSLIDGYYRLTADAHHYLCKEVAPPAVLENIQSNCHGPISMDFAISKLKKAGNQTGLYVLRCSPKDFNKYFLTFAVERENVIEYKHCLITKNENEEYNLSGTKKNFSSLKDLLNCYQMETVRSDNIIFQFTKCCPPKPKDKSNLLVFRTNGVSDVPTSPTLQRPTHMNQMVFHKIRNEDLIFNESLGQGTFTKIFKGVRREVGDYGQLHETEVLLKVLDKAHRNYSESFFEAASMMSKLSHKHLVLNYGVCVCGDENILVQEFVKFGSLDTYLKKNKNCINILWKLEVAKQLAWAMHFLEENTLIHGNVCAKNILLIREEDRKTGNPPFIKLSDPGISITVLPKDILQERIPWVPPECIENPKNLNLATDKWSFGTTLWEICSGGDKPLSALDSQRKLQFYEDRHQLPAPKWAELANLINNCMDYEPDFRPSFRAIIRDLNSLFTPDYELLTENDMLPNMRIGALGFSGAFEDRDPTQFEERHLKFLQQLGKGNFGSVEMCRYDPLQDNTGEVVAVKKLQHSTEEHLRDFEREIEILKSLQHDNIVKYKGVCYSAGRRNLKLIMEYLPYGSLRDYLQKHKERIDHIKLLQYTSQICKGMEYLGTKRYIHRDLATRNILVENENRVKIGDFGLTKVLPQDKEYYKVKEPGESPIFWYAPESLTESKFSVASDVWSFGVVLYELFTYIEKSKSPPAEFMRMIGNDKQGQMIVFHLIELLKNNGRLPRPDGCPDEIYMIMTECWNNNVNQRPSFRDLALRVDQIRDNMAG
How it was run: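 Serum-starved TF1 cells were pretreated with compound for 1 h (10-point four-fold series from 10 μM), then stimulated with 30 ng/mL IL-3 for 15 min. pSTAT5 in lysates was measured by MSD immunoassay. IC50 came from a 4-parameter logistic fit.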

JAK1 = JAK1 (Homo sapiens (Human), UniProt P23458); assay: pSTAT3 Cell Assay (MSD, TF1 cells); assay type: cell-based
JAK1, sequence (P23458 whole entry): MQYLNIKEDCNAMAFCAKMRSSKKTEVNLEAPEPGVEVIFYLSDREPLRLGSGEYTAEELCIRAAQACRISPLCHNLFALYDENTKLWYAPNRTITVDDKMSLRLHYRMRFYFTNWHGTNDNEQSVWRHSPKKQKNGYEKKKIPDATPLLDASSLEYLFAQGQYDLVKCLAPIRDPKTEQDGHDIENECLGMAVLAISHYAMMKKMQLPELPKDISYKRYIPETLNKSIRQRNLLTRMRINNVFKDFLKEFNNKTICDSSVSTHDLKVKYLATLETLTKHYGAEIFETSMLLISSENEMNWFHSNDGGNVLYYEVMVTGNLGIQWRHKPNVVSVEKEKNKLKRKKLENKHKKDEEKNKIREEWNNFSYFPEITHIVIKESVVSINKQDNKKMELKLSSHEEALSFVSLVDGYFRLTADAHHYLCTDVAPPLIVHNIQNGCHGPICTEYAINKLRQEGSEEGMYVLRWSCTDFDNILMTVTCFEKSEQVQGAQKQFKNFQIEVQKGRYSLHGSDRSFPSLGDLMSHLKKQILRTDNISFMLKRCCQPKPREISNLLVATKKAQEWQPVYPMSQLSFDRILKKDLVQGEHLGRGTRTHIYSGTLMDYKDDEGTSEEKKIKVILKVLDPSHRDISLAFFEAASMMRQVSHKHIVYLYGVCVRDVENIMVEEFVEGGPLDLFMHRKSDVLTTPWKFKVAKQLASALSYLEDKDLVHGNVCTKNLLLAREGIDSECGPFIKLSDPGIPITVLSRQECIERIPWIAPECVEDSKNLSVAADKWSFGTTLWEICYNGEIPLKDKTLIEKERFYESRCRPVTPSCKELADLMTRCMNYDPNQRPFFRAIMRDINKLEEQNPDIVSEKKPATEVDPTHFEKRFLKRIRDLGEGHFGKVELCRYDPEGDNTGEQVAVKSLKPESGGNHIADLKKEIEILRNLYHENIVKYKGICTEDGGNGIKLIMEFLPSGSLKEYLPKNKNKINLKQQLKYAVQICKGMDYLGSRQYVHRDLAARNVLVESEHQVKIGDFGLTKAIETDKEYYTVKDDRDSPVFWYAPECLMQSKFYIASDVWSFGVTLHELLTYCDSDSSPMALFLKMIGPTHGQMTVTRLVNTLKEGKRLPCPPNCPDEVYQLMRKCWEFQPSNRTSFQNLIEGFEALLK
How it was run: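 Serum-starved TF1 cells were pretreated with compound for 1 hour (10-point, four-fold dilutions from 10 μM), then stimulated with IL-6 for 15 minutes. Lysates were assayed for pSTAT3 by MSD with anti-STAT3 antibodies; IC50 came from a 4-parameter logistic fit of normalized percent activity.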

[1] = TR-FRET probe displacement, JH2 domain of human Tyk2
[2] = JH2 domain of human Tyk2, TR-FRET probe displacement
[3] = TR-FRET probe displacement, JH2 domain

JH2 domain of human Tyk2, sequence (P29597 575-876): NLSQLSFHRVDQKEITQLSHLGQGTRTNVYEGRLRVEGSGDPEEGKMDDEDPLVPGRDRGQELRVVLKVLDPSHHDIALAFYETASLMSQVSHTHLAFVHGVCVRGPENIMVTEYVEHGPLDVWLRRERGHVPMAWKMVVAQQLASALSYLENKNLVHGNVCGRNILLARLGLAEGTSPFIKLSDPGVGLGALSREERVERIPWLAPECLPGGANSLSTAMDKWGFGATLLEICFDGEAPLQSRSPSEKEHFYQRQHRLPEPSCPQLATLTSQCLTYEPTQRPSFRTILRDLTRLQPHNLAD
Tyk2, sequence (P29597 whole entry, the tested form may be a part): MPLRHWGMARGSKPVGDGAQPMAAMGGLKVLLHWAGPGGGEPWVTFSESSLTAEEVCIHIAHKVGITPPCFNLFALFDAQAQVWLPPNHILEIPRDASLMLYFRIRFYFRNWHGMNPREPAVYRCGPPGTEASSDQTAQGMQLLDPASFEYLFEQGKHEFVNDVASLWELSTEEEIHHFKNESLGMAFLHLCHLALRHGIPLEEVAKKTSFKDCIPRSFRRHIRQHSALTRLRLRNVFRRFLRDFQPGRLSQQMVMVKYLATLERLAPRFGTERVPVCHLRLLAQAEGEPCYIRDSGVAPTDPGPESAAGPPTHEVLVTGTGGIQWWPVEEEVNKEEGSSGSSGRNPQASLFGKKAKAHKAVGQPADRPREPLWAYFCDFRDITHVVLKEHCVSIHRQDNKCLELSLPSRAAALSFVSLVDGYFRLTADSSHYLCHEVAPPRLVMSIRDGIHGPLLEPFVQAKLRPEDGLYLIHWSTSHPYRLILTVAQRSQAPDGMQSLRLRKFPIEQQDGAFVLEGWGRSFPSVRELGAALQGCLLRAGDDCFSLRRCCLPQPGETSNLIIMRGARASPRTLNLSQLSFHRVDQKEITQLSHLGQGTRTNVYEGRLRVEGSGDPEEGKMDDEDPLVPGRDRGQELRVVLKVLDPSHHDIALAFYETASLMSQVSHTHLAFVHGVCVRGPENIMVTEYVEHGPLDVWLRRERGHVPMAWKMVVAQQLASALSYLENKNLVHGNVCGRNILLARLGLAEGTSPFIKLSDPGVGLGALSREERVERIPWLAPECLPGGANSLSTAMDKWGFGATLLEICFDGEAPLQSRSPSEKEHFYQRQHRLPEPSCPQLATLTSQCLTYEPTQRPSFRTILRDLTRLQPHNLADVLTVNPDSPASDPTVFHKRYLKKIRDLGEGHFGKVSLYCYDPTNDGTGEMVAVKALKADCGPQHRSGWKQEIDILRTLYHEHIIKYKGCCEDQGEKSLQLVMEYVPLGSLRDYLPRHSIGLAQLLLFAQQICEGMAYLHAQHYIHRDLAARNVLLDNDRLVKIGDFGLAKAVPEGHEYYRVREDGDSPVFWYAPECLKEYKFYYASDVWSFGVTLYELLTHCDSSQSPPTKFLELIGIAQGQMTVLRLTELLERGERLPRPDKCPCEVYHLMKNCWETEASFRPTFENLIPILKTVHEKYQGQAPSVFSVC

Row | SMILES | IC50 (Tyk2; MSD) [nM] | IC50 (JH2 domain of human Tyk2; [1]) [nM] | IC50 (JAK2; IL-3 stimulation, MSD) [nM] | IC50 (JAK1; IL-6 stimulation, MSD) [nM] | IC50 (JH2 domain of human Tyk2; [2]) [nM] | IC50 (JAK2; IL-3 stimulated, MSD) [nM] | IC50 (JAK1; IL-6 stimulated, MSD) [nM] | IC50 (Tyk2) [nM] | IC50 (JH2 domain of human Tyk2; [3]) [nM] | IC50 (JAK2; IL-3 stimulated) [nM] | IC50 (JAK1; IL-6 stimulated) [nM]
1 | CC(=O)Nc1cc(Nc2cc(C)nc(C(C)(F)F)n2)c(-c2ccn(C)n2)cn1 [Example 218, N-(4-((2-(1,1-difluoroethyl)-6-methylpyrimidin-4-yl)amino)-5-(1-methyl-1H-pyrazol-3-yl)pyridin-2-yl)acetamide] | ≤ 10 | ≤ 10 | ≥ 1000 | ≥ 1000 |  |  |  |  |  |  | 
2 | CC(=O)Nc1cc(Nc2cc(C)nc(C(C)(F)F)n2)c(OCc2ccccn2)cn1 [Example 101, N-(4-((2-(1,1-difluoroethyl)-6-methylpyrimidin-4-yl)amino)-5-(pyridin-2-ylmethoxy)pyridin-2-yl)acetamide] | 10 to 100 | ≤ 10 | ≥ 1000 | ≥ 1000 |  |  |  |  |  |  | 
3 | CC(=O)Nc1cc(Nc2ccnc(C(C)(F)F)n2)ccn1 [Example 724, N-(4-((2-(1,1-difluoroethyl)pyrimidin-4-yl)amino)pyridin-2-yl)acetamide] | ≥ 1000 |  |  |  | 10 to 100 | ≥ 1000 | ≥ 1000 |  |  |  | 
4 | CC(=O)Nc1cc(Nc2cc(C)nc(C(C)(F)F)n2)c(-c2cnccn2)cn1 [Example 620, N-(4-((2-(1,1-difluoroethyl)-6-methylpyrimidin-4-yl)amino)-5-(pyrazin-2-yl)pyridin-2-yl)acetamide] | 10 to 100 |  |  |  | ≤ 10 | ≥ 1000 | ≥ 1000 |  |  |  | 
5 | CC(=O)Nc1cc(Nc2cc(C)nc(C(C)(F)F)n2)c(-c2ccc(N(C)C)cn2)cn1 [Example 652, N-(4′-((2-(1,1-difluoroethyl)-6-methylpyrimidin-4-yl)amino)-5-(dimethylamino)-[2,3′-bipyridin]-6′-yl)acetamide] | ≤ 10 |  |  |  | ≤ 10 | ≥ 1000 | ≥ 1000 |  |  |  | 
6 | CC(=O)Nc1cc(Nc2ccnc(C(C)(F)F)n2)c(-c2ccc(OC(F)F)cn2)cn1 [Example 826, N-(4′-((2-(1,1-difluoroethyl)pyrimidin-4-yl)amino)-5-(difluoromethoxy)-[2,3′-bipyridin]-6′-yl)acetamide] |  |  |  |  |  |  |  | ≤ 10 | ≤ 10 | ≥ 1000 | ≥ 1000
7 | CC(=O)Nc1cc(Nc2cc(C)nc(C(C)(F)F)n2)c(OCC[C@@H](C)F)cn1 [Example 336, (R)-N-(4-((2-(1,1-difluoroethyl)-6-methylpyrimidin-4-yl)amino)-5-(3-fluorobutoxy)pyridin-2-yl)acetamide] | 10 to 100 | ≤ 10 | ≥ 1000 | ≥ 1000 |  |  |  |  |  |  | 
8 | CCOc1cnc(NC(C)=O)cc1Nc1cc(C2CC2)nc(C(C)(F)F)n1 [Example 13, N-(4-((6-cyclopropyl-2-(1,1-difluoroethyl)pyrimidin-4-yl)amino)-5-ethoxypyridin-2-yl)acetamide] | 10 to 100 | ≤ 10 | ≥ 1000 | ≥ 1000 |  |  |  |  |  |  | 
9 | CC(=O)Nc1cc(Nc2ccnc(C(C)(F)F)n2)c(-c2ncc(F)cn2)cn1 [Example 185, N-(4-((2-(1,1-difluoroethyl)pyrimidin-4-yl)amino)-5-(5-fluoropyrimidin-2-yl)pyridin-2-yl)acetamide] | 10 to 100 | ≤ 10 | ≥ 1000 | ≥ 1000 |  |  |  |  |  |  | 
10 | CC(=O)Nc1cc(Nc2ccnc(C(C)(F)F)n2)c(-c2ccc(N(C)C)cn2)cn1 [Example 276, N-(4′-((2-(1,1-difluoroethyl)pyrimidin-4-yl)amino)-5-(dimethylamino)-[2,3′-bipyridin]-6′-yl)acetamide] | ≤ 10 | ≤ 10 | ≥ 1000 | ≥ 1000 |  |  |  |  |  |  | 
11 | CCOc1cnc(NC(C)=O)cc1Nc1cc(-c2cnn(C3CC3)c2)nc(C(C)(F)F)n1 [Example 304, N-(4-((6-(1-cyclopropyl-1H-pyrazol-4-yl)-2-(1,1-difluoroethyl)pyrimidin-4-yl)amino)-5-ethoxypyridin-2-yl)acetamide] | ≤ 10 | ≤ 10 | ≥ 1000 | ≥ 1000 |  |  |  |  |  |  | 
12 | COc1cnc(NC(C)=O)cc1Nc1cc(C)nc(C(C)(F)F)n1 [Example 46, N-(4-((2-(1,1-difluoroethyl)-6-methylpyrimidin-4-yl)amino)-5-methoxypyridin-2-yl)acetamide] | 10 to 100 | ≤ 10 | ≥ 1000 | ≥ 1000 |  |  |  |  |  |  | 
13 | CCc1cc(Nc2cc(NC(C)=O)ncc2-c2ccc(CN3CCOCC3)cn2)nc(C(C)(F)F)n1 [Example 268, N-(4′-((2-(1,1-difluoroethyl)-6-ethylpyrimidin-4-yl)amino)-5-(morpholinomethyl)-[2,3′-bipyridin]-6′-yl)acetamide] | ≤ 10 | ≤ 10 | ≥ 1000 | ≥ 1000 |  |  |  |  |  |  | 
14 | CCOc1cnc(NC(C)=O)cc1Nc1cc(C)nc(C(C)(F)F)n1 [Example 10, N-(4-((2-(1,1-difluoroethyl)-6-methylpyrimidin-4-yl)amino)-5-ethoxypyridin-2-yl)acetamide] | 10 to 100 | ≤ 10 | ≥ 1000 | ≥ 1000 |  |  |  |  |  |  | 
15 | [2H]C([2H])([2H])C([2H])([2H])Oc1cnc(NC(C)=O)cc1Nc1cc(C)nc(C(C)(F)F)n1 [Example 49, N-(4-((2-(1,1-difluoroethyl)-6-methylpyrimidin-4-yl)amino)-5-(ethoxy-d5)pyridin-2-yl)acetamide] | 10 to 100 | ≤ 10 | ≥ 1000 | ≥ 1000 |  |  |  |  |  |  | 
16 | COCCOc1cnc(NC(C)=O)cc1Nc1cc(C2CC2)nc(C(C)(F)F)n1 [Example 66, N-(4-((6-cyclopropyl-2-(1,1-difluoroethyl)pyrimidin-4-yl)amino)-5-(2-methoxyethoxy)pyridin-2-yl)acetamide] | ≤ 10 | ≤ 10 | ≥ 1000 | ≥ 1000 |  |  |  |  |  |  | 
17 | CC(=O)Nc1cc(Nc2cc(C)nc(C(C)(C)F)n2)c(-c2ccn3ncnc3n2)cn1 [Example 534, N-(5-([1,2,4]triazolo[1,5-a]pyrimidin-5-yl)-4-((2-(2-fluoropropan-2-yl)-6-methylpyrimidin-4-yl)amino)pyridin-2-yl)acetamide] | ≤ 10 |  |  |  | ≤ 10 | ≥ 1000 | ≥ 1000 |  |  |  | 
18 | COCCOc1cnc(NC(C)=O)cc1Nc1cc(OC)nc(C(C)(F)F)n1 [Example 21, N-(4-((2-(1,1-difluoroethyl)-6-methoxypyrimidin-4-yl)amino)-5-(2-methoxyethoxy)pyridin-2-yl)acetamide] | 10 to 100 | ≤ 10 | ≥ 1000 | ≥ 1000 |  |  |  |  |  |  | 
19 | CC(=O)Nc1cc(Nc2ccnc(C(C)(F)F)n2)c(-c2cnc(C(C)(C)O)cn2)cn1 [Example 853, N-(4-((2-(1,1-difluoroethyl)pyrimidin-4-yl)amino)-5-(5-(2-hydroxypropan-2-yl)pyrazin-2-yl)pyridin-2-yl)acetamide] |  |  |  |  |  |  |  | 10 to 100 | ≤ 10 | ≥ 1000 | ≥ 1000
20 | CC(=O)Nc1cc(Nc2cncc(C(C)(F)F)n2)c(-c2ccn(C)n2)cn1 [Example 212, N-(4-((6-(1,1-difluoroethyl)pyrazin-2-yl)amino)-5-(1-methyl-1H-pyrazol-3-yl)pyridin-2-yl)acetamide] | ≤ 10 | ≤ 10 | 100 to 1000 | ≥ 1000 |  |  |  |  |  |  | 
21 | CC(=O)Nc1cc(Nc2cc(C)nc(C(C)(F)F)n2)c(-c2cnn(C)n2)cn1 [Example 227, N-(4-((2-(1,1-difluoroethyl)-6-methylpyrimidin-4-yl)amino)-5-(2-methyl-2H-1,2,3-triazol-4-yl)pyridin-2-yl)acetamide] | ≤ 10 | ≤ 10 | ≥ 1000 | ≥ 1000 |  |  |  |  |  |  | 
